Source: patent US10660967B2, “Curcumin conjugates and methods of use thereof” (priority 2016, dated 2020)
Where two headings read alike, the source gives them in different places.

What was measured:
[1] = tested on: Candida albicans (local isolate); experiment: Antimicrobial MIC, agar dilution; settings: Candida albicans, read-out: Minimum inhibitory concentration (MIC)
[2] = tested on: Salmonella typhi ATCC19430; experiment: Antimicrobial MIC, agar dilution; type: cell-based; settings: Salmonella enterica, read-out: Minimum inhibitory concentration (MIC)
[3] = tested on: PHA-stimulated splenocytes; experiment: Proliferative response of PHA-stimulated splenocytes (MTT assay); type: cell-based; settings: PHA 5 μg/ml, 72 hr; compounds at 5 μM (method says 10 μM); ratio of O.D. versus vehicle control
How it was run: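 Freshly prepared splenocytes (1×10^6 cells/well) were cultured for 72 h at 37° C with compound at 10 μM final, with or without PHA (5 μg/ml). Viability was read by MTT (4 h), with absorbance at 570 nm against 690 nm reference. Stimulation index is the OD ratio of treated versus vehicle cultures.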

[4] = tested on: A-549 (lung) carcinoma cell line; experiment: Anti-tumor properties, MTT; type: cell-based; settings: Homo sapiens, A549
[5] = tested on: Pseudomonas aeruginosa ATCC27853; experiment: Antimicrobial MIC, agar dilution
[6] = tested on: Streptococcus pyogenes ATCC19615; experiment: Antimicrobial MIC, agar dilution
[7] = tested on: HCT116 (colon) carcinoma cell line; experiment: Anti-tumor properties, MTT; type: cell-based; settings: Homo sapiens, HCT-116; read-out: IC50 (μM) HCT116 (colon)
How it was run: (§1)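 Cells seeded at 10×10^3 per well for 24 h, then exposed to compound in serum-free medium (final up to 100 μM, 0.5% DMSO vehicle) for 72 h in triplicate. Viability by MTT reduction (4 h, SDS solubilised), absorbance 595 nm/ref 620 nm; IC50 from survival curves.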

[8] = tested on: MCF7 (breast) carcinoma cell line; experiment: Anti-tumor properties, MTT; type: cell-based; settings: Homo sapiens, MCF7; read-out: IC50 (μM) MCF7 (breast)
How it was run: as §1

[9] = tested on: HepG2 (hepatocellular) carcinoma cell line; experiment: Anti-tumor properties, MTT; type: cell-based; settings: Homo sapiens, HepG2; read-out: IC50 (μM) HepG2 (liver)
How it was run: as §1

[10] = tested on: lipopolysaccharide-stimulated peritoneal macrophages; experiment: Production of nitric oxide by lipopolysaccharide-stimulated peritoneal macrophages (Greiss reagent); type: cell-based; parameters: Potency (%): % inhibition of nitric oxide production relative to lipopolysaccharide-stimulated macrophages: concentration or dose not given beside the values; settings: LPS-stimulated peritoneal macrophages; for Nitric oxide (nitrite) concentration, μM (average ± SD): 24 h, nitrite by Greiss reagent
How it was run: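 Macrophages in nitrite-free medium with 0.1% BSA were stimulated with LPS at 0.5–10 ng/ml, some wells also receiving epinephrine, norepinephrine or dopamine at […], for 24 h at 37° C. Nitrite in supernatants was measured with Greiss reagent, 15 min at room temperature, absorbance 532 nm.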

[11] = tested on: PC3 (prostate) carcinoma cell line; experiment: Anti-tumor properties, MTT; type: cell-based; settings: Homo sapiens
[12] = tested on: Staphylococcus aureus ATCC25923; experiment: Antimicrobial MIC, agar dilution
[13] = tested on: gastric mucosa; experiment: Ulcerogenic liability (ulcer index); type: in vivo, albino mice; settings: orally, three successive days, 10 mg/kg indomethacin mol equivalent
How it was run: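 Albino mice were fasted 18 h before dosing, and controls got saline with a few drops of Tween 80. Gastric mucosa was checked under a 10× lens for lesions and erosions. The ulcer index combines percentage incidence divided by 10, mean ulcers per stomach and mean severity.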

[14] = ATCC27853, 18 h, read-out: Minimum inhibitory concentration (MIC)
[15] = ATCC27853, read-out: Minimum inhibitory concentration (MIC)
[16] = ATCC19615, 18 h, read-out: Minimum inhibitory concentration (MIC)
[17] = ATCC19615, read-out: Minimum inhibitory concentration (MIC)
[18] = ATCC25923, 18 h, read-out: Minimum inhibitory concentration (MIC)
[19] = ATCC25923, read-out: Minimum inhibitory concentration (MIC)

Compound	MIC ([1]; 18 h)	MIC [1]	MIC ([2]; 18 h)	MIC [2]	Stimulation Index (average ± SD) [3]	IC50 [4]	MIC [5, 14]	MIC [5, 15]	MIC [6, 16]	MIC [6, 17]	IC50 [7]	IC50 [8]	IC50 [9]	Potency (%): % inhibition of nitric oxide production relative to lipopolysaccharide-stimulated macrophages [10]	Nitric oxide (nitrite) concentration, μM (average ± SD) [10]	IC50 [11]	MIC [12, 18]	MIC [12, 19]	further results
COc1cc(/C=C/C(=O)CC(=O)/C=C/c2ccc(OC(=O)[C@H](CCSC)NC(=O)OC(C)(C)C)c(OC)c2)ccc1OC(=O)[C@H](CCSC)NC(=O)OC(C)(C)C [Boc-L-Met-Cur, ((1E,6E)-3,5-dioxohepta-1,6-diene-1,7-diyl)bis(2-methoxy-4,1-phenylene) (2S,2′S)-bis(2-((tert-butoxycarbonyl)amino)-4-(methylthio)butanoate)]	1 µg/mL	1.2 µM	2 µg/mL	2.41 µM	1.37 ± 0.10	> 100 µM	1 µg/mL	1.2 µM	2 µg/mL	2.41 µM	> 100 µM	36.3 µM	> 100 µM	40.84%	16.16 ± 0.64 µM	> 100 µM	2 µg/mL	2.41 µM	% Incidence of ulcer divided by 10 [13]: 0; Average of ulcer number [13]: 0; Average severity of ulcer [13]: 0; Number of animals with ulcer ([13]; 6 animals per group): 0/6; Ulcer index ([13]; sum of the three values): 0
COc1cc(/C=C/C(=O)CC(=O)/C=C/c2ccc(OC(=O)[C@@H](NC(=O)OC(C)(C)C)C(C)C)c(OC)c2)ccc1OC(=O)[C@@H](NC(=O)OC(C)(C)C)C(C)C [Boc-L-Val-Cur, ((1E,6E)-3,5-dioxohepta-1,6-diene-1,7-diyl)bis(2-methoxy-4,1-phenylene) (2S,2′S)-bis(2-((tert-butoxycarbonyl)amino)-3-methylbutanoate)]	1 µg/mL	1.3 µM	0.25 µg/mL	0.326 µM	1.84 ± 0.06	> 100 µM	2 µg/mL	2.61 µM	2 µg/mL	2.61 µM	> 100 µM	≥ 100 µM	> 100 µM	29.35%	19.29 ± 0.39 µM	> 100 µM	0.25 µg/mL	0.326 µM	
COc1cc(/C=C/C(=O)CC(=O)/C=C/c2ccc(OC(=O)CCNC(=O)OC(C)(C)C)c(OC)c2)ccc1OC(=O)CCNC(=O)OC(C)(C)C [Boc-β-Ala-Cur, ((1E,6E)-3,5-dioxohepta-1,6-diene-1,7-diyl)bis(2-methoxy-4,1-phenylene) bis(3-((tert-butoxycarbonyl)amino)propanoate)]	0.5 µg/mL	0.703 µM	0.5 µg/mL	0.703 µM	1.70 ± 0.24	> 100 µM	0.25 µg/mL	0.352 µM	0.25 µg/mL	0.352 µM	> 100 µM	13.2 µM	> 100 µM	32.81%	18.35 ± 1.61 µM	> 100 µM	0.25 µg/mL	0.352 µM	
COc1cc(/C=C/C(=O)CC(=O)/C=C/c2ccc(OC(=O)[C@H](C)N)c(OC)c2)ccc1OC(=O)[C@H](C)N.Cl.Cl [HCl-L-Ala-Cur, (2S,2′S)-1,1′-((((1E,6E)-3,5-dioxohepta-1,6-diene-1,7-diyl)bis(2-methoxy-4,1-phenylene))bis(oxy))bis(1-oxopropan-2-aminium) chloride]	0.5 µg/mL	0.857 µM	0.5 µg/mL	0.857 µM	1.14 ± 0.18	21.7 µM	0.25 µg/mL	0.428 µM	0.5 µg/mL	0.857 µM	38.8 µM	10.7 µM	33.8 µM	46.24%	14.68 ± 1.20 µM	31.5 µM	0.5 µg/mL	0.857 µM	
COc1cc(/C=C/C(=O)CC(=O)/C=C/c2ccc(OC(=O)[C@@H](N)CCC(N)=O)c(OC)c2)ccc1OC(=O)[C@@H](N)CCC(N)=O.Cl.Cl [HCl-L-Gln-Cur, (2S,2′S)-1,1′-((((1E,6E)-3,5-dioxohepta-1,6-diene-1,7-diyl)bis(2-methoxy-4,1-phenylene))bis(oxy))bis(5-amino-1,5-dioxopentan-2-aminium) chloride]	0.125 µg/mL	0.179 µM	0.125 µg/mL	0.179 µM	2.22 ± 0.20	21.1 µM	0.5 µg/mL	0.717 µM	0.5 µg/mL	0.717 µM	41 µM	9.15 µM	39.1 µM	20.35%	21.75 ± 1.31 µM	34.4 µM	0.25 µg/mL	0.358 µM	
CC[C@H](C)[C@H](N)C(=O)Oc1ccc(/C=C/C(=O)CC(=O)/C=C/c2ccc(OC(=O)[C@@H](N)[C@@H](C)CC)c(OC)c2)cc1OC.Cl.Cl [HCl-L-Ile-Cur, (2S,2′S,3S,3′S)-1,1′-((((1E,6E)-3,5-dioxohepta-1,6-diene-1,7-diyl)bis(2-methoxy-4,1-phenylene))bis(oxy))bis(3-methyl-1-oxopentan-2-aminium) chloride]	0.125 µg/mL	0.187 µM	0.125 µg/mL	0.187 µM	1.59 ± 0.17	20.9 µM	0.25 µg/mL	0.374 µM	0.5 µg/mL	0.749 µM	36.7 µM	10.2 µM	38.9 µM	35.45%	17.63 ± 1.14 µM	34.4 µM	0.25 µg/mL	0.374 µM	
COc1cc(/C=C/C(=O)CC(=O)/C=C/c2ccc(OC(=O)[C@@H](N)Cc3ccccc3)c(OC)c2)ccc1OC(=O)[C@@H](N)Cc1ccccc1.Cl.Cl [HCl-L-Phe-Cur, (2S,2′S)-1,1′-((((1E,6E)-3,5-dioxohepta-1,6-diene-1,7-diyl)bis(2-methoxy-4,1-phenylene))bis(oxy))bis(1-oxo-3-phenylpropan-2-aminium) chloride]	0.5 µg/mL	0.68 µM	0.125 µg/mL	0.17 µM	1.41 ± 0.31	33.5 µM	0.5 µg/mL	0.68 µM	0.5 µg/mL	0.68 µM	65.6 µM	11.5 µM	56.2 µM	39.74%	16.46 ± 2.05 µM	74.4 µM	0.25 µg/mL	0.34 µM	
COc1cc(/C=C/C(=O)CC(=O)/C=C/c2ccc(OC(=O)[C@@H](N)C(C)C)c(OC)c2)ccc1OC(=O)[C@@H](N)C(C)C.Cl.Cl [HCl-L-Val-Cur, (2S,2′S)-1,1′-((((1E,6E)-3,5-dioxohepta-1,6-diene-1,7-diyl)bis(2-methoxy-4,1-phenylene))bis(oxy))bis(3-methyl-1-oxobutan-2-aminium) chloride]	0.125 µg/mL	0.195 µM	0.125 µg/mL	0.195 µM	2.05 ± 0.15	20.4 µM	0.25 µg/mL	0.391 µM	0.125 µg/mL	0.195 µM	66.5 µM	10.4 µM	39.1 µM	24.37%	20.65 ± 0.99 µM	34.6 µM	0.25 µg/mL	0.391 µM	
